Source: patent US5344843A, “Cat-1 inhibitors, pharmaceutical compositions and methods of use” (Hoffman-La Roche Inc., priority 1992, dated 1994)
Where two headings read alike, the source gives them in different places.

Molecular target: T1, CAT-1 (carnitine acyltransferase 1) (Rattus norvegicus, UniProt Q63704)
T1 construct: This preparation is used as the isolated mitochondrial preparation; from tissue; host or cells: rat heart (atria removed), isolated mitochondria
T1 sequence (Q63704 1-772): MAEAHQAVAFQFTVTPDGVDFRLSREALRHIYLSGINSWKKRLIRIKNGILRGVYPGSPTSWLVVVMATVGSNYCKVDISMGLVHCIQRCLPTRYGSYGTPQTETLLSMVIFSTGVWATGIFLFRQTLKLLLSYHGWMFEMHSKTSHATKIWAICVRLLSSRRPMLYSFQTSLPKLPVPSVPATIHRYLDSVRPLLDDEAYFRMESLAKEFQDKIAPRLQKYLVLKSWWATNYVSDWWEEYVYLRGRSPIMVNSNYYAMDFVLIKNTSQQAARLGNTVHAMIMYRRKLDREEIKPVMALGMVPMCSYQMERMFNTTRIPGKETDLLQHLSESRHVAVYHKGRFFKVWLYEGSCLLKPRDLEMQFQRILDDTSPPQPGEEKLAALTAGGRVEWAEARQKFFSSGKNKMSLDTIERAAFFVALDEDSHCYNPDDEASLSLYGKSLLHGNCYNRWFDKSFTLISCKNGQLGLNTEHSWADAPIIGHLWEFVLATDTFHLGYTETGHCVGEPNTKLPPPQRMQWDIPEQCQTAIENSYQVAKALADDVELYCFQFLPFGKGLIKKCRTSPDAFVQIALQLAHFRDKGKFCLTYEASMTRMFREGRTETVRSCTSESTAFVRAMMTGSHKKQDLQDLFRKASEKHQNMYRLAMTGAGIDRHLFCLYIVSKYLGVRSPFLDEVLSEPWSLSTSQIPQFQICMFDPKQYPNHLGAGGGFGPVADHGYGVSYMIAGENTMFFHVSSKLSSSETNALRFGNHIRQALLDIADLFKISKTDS
Assay: Primary Screen--Inhibition of CAT-1 in isolated mitochondria
Assay type: biochemical
Design: inhibition: dose or concentration left out as unconfirmed

[1] = rat heart mitochondria, reduction of palmitoyl carnitine formation by 50%, read-out: Primary Screen IC50

Procedure: Primary Screen--Inhibitors of CAT-1 in 1Mitochondria
(a). Preparation of Mitochondria
The heart is rapidly removed from an anesthetized rat (sodium pentabarbitol) and placed in ice-cold homogenization buffer (sucrose, 250 mM; Tris, 10 mM; EDTA, 1 mM; BSA, 0.01%; pH=7.4). The atria and extraneous tissue are removed and the remainder is chopped with scissors. The pieces are rinsed in homogenization buffer before being homogenized in 10 mL of the same buffer for 5-7 seconds. The homogenate is then diluted with homogenization buffer (40 total volume) and centrifuged at 200 g for 20 minutes. The supernatant is withdrawn and centrifuged at 7000 g for 20 minutes and the resulting pellet is isolated, resuspended in 40 mL of homogenization buffer and centrifuged once more at 7000 g for 20 minutes. The isolated pellet is resuspended in 10 mL of homogenization buffer and stored at 4° C. until use. This preparation is used as the isolated mitochondrial preparation.
(b). Inhibition of CAT-1 assay
Isolated mitochondria (20 μL) are incubated with 60 μL of Tris/sucrose buffer (sucrose, 500 mM; Tris, 20 mM; KCl, 100 mM; EDTA, 2 mM; pH=7.0 plus 83 μM palmitoyl CoA, and BSA, 0.8 mg/mL and 10^-4 to 10^-10 M of the drug to be tested. After 10 minutes at 30° C., the reaction is started by addition of 10 μL of ^3 H-carnitine (final concentration=250 μM). After 5 minutes, the reaction is terminated by the addition of ice cold 70% perchloric acid (PCA). The precipitated solids so formed, containing the insoluble product of the enzyme palmitoyl carnitine, are captured on filter paper. The filter paper is washed with 7% PCA, then dried and placed in scintillation vials with 10 mL of scintillant (Aquasol, New England Nuclear) and counted for radioactivity. The rate of the reaction is assessed by the difference in radioactivity between zero time and five minutes in the absence of test compound. The ability of test compounds at selected concentrations to inhibit CAT-1 is determined by their ability to reduce the formation of the radioactive product. The IC50 of the test compound is the concentration of test compound that reduces the formation of radioactive product by 50%.

SMILES | IC50 [1] | also measured
COC(=O)C(=O)c1ccc(OCCOc2ccc3cc(OC(C)=O)ccc3c2)cc1 [Example 138, 4-[[2-[6-(Acetyloxy)-2-naphthalenyloxy]ethyl]oxy]-alpha-oxobenzeneacetic acid methyl ester] | 8.9 µM | 
CCCc1c(OCCCOc2ccc(C(=O)C(=O)O)cc2)ccc(C(=O)OC)c1O [Example 268, 4-[3-[3-hydroxy-4-(methoxycarbonyl)-2-propylphenoxy)propoxy]-alpha-oxobenzeneacetic acid] | 0.23 µM | 
O=C(O)C(=O)c1cc(Cl)c(OCCOc2ccc3ccccc3c2)c(Cl)c1 [Example 189, 3,5-dichloro-4-[2-(2-naphthalenyloxy)ethoxy]-alpha-oxobenzeneacetic acid (6:1) molar benzene solvate] |  | inhibition: 28%
CCO/N=C(\C(=O)O)c1ccc(OCCOc2ccc3ccccc3c2)s1 [Example 310, (E)-alpha-(ethoxyimino)-5-[2-(2-naphthalenyloxy)ethoxy]-2-thiopheneacetic acid] | 0.24 µM | 
CN(C)/N=C(/C(=O)O)c1ccc(OCCOc2ccc3ccccc3c2)cc1 [Example 320, (E)-alpha-(dimethylhydrazono)-4-[2-(2-naphthalenyloxy)ethoxy]benzeneaceticacid] | 1.8 µM | 
O=C(O)C(=O)c1ccc(OCCOc2cc3ccccc3c3ccccc23)cc1 [Example 110, alpha-oxo-4-[[2-(9-phenanthrenyloxy)ethyl]oxy]benzeneacetic acid] |  | IC50: 0.1 µM
O=C(O)C(=O)c1ccc(OCCOc2ccc(Cl)cc2)cc1 [Example 45, 4-[[2-(4-chlorophenoxy)ethyl]oxy]-alpha-oxobenzeneacetic acid] | 0.3 µM | 
O=C(O)C(=O)c1ccc(OC/C=C/c2ccc(F)cc2)cc1 [Example 29, (E)-4-[[3-(4-fluorophenyl)-2-propenyl]oxy]-alpha-oxobenzeneacetic acid] | 0.25 µM | 
CCC(C)(C)C(=O)Oc1cccc2ccc(OCCOc3ccc(C(=O)C(=O)OC)cc3)cc12 [Example 133, 4-[[2-[8-(2,2-dimethyl-1-oxobutoxy)-2-naphthalenyloxy]ethyl]oxy]-alpha-oxobenzeneacetic acid methyl ester] | 35 µM | 
CCCc1c(OCCCOc2ccc(C(=O)C(=O)O)cc2)ccc(C(C)=O)c1OC [Example 271, 4-[3-[4-acetyl-3-methoxy-2-propylphenoxy)propoxy]-alpha-oxobenzeneacetic acid] | 0.46 µM | 
O=C(O)C(=O)c1ccc(OCCOc2ccc3cc4ccccc4cc3c2)cc1 [Example 108, 4-[[2-(2-anthracenyloxy)ethyl]oxy]-alpha-oxobenzeneacetic acid] | 0.2 µM | 
O=C(O)C(=O)c1ccc(OCCOc2cc3ccccc3cc2O)cc1 [Example 121, 4-[[2-(3-hydroxy-2-naphthalenyloxy)ethyl]oxy]-alpha-oxobenzeneacetic acid] | 0.3 µM | 
O=C(O)/C(=N\OCc1ccccc1)c1ccc(OCCOc2ccc3ccccc3c2)s1 [Example 316, (E)-5-[2-(2-naphthalenyloxy)ethoxy]-alpha-[(phenylmethoxy)imino]-2-thiopheneacetic acid] | 0.5 µM | 
CCO/N=C(/C(=O)O)c1ccc(OCCOc2ccc3ccccc3c2)s1 [Example 309, (Z)-alpha-(ethoxyimino)-5-[2-(2-naphthalenyloxy)ethoxy]-2-thiopheneacetic acid] | 0.02 µM | 
O=C(O)C(=O)c1ccc(OC/C=C\c2ccccc2)cc1 [Example 33, (Z)-alpha-oxo-4-[(3-phenyl-2-propenyl)oxy]benzeneacetic acid] | 1 µM | 
O=C(O)C(=O)c1ccc(OCCOc2ccc3cccnc3c2)cc1 [Example 127, alpha-oxo-4-[[2-(7-quinolyloxy)ethyl]oxy]benzeneacetic acid monohydrate] | 0.26 µM | 
O=C(O)C(=O)c1ccc(C#CCNC(=O)c2ccc3ccccc3c2)cc1 [Example 146, 4-[3-[[(2-naphthalenyl)carbonyl]amino]-1-propynyl]-alpha-oxobenzeneacetic acid] | 5.5 µM | 
O=C(O)C(=O)c1ccc(OCCOCCOc2ccc(C(=O)C(=O)O)cc2)cc1 [Example 78, 4,4'-[oxybis(2,1-ethanedienyloxy)]bis(alpha-oxobenzeneacetic acid)] | 2 µM | 
O=C(O)C(=O)c1ccc(OCCOc2ccc(Oc3ccccc3)cc2)cc1 [Example 59, alpha-oxo-4-[[2-(4-phenoxyphenoxy)ethyl]oxy]benzeneacetic acid] | 10 µM | 

Now from value to compound, other results behind:

IC50 [1] | SMILES | also measured
12 µM | O=C(O)C(=O)c1ccc(OCC(=O)N2CCOCC2)cc1 [Example 255, 4-[2-(4-morpholinyl)-2-oxoethoxy]-alpha-oxobenzeneacetic acid] | 
12 µM | O=C(O)C(=O)c1ccc(OCCc2ccccc2)cc1 [Example 21, 4-[(2-phenylethyl)oxy]-alpha-oxobenzeneacetic acid] | 
0.57 µM | CC(C)(C)c1cc(SCCCOc2ccc(C(=O)C(=O)O)cc2)cc(C(C)(C)C)c1O [Example 275, 4-[3-[[3,5-bis(1,1-dimethylethyl)-4-hydroxyphenyl]thio]propoxy]-alpha-oxobenzeneacetic acid] | 
4 µM | Cc1ccc(OCCOc2ccc(C(=O)C(=O)O)cc2)cc1 [Example 49, 4-[[2-(4-methylphenoxy)ethyl]oxy]-alpha-oxobenzeneacetic acid] | 
0.15 µM | O=C(O)C(=O)c1ccc(OCCCNC(=O)c2ccc3ccccc3c2)cc1 [Example 140, 4-[[3-(2-naphthoylamino)propyl]oxy]-alpha-oxobenzeneacetic acid] | 
3 µM | O=C(O)C(=O)c1ccc(OCCCc2ccc(F)cc2)cc1 [Example 27, 4-[[3-(4-fluorophenyl)propyl]oxy]-alpha-oxobenzeneacetic acid] | 
3.5 µM | O=C(C(=O)N(CCO)CCO)c1ccc(OCCOc2ccc3ccccc3c2)cc1 [Example 163, N,N-bis(2-hydroxyethyl)-4-[[2-(2-naphthalenyloxy)ethyl]oxy]-alpha-oxobenzeneacetamide] | 
1 µM | O=C(O)C(=O)c1ccc(OCC(=O)C2CCCCCCC2)cc1 [Example 290, 4-[2-(cyclooctyl)-2-oxoethoxy]-alpha-oxobenzeneacetic acid] | 
0.93 µM | O=C(COc1ccc2ccccc2c1)Nc1ccc(C(=O)C(=O)O)cc1 [Example 153, 4-[[2-(2-naphthalenyloxy)acetyl]amino]-alpha-oxobenzeneacetic acid] | 
0.25 µM | O=C(O)C(=O)c1ccc(OCCOc2cc3ccccc3cc2OCCO)cc1 [Example 118, 4-[[2-[3-(2-hydroxyethoxy)-2-naphthalenyloxy]ethyl]oxy]-alpha-oxobenzeneacetic acid] | 
0.1 µM | C=CCO/N=C(/C(=O)O)c1ccc(OCCOc2ccc3ccccc3c2)s1 [Example 312, (Z)-5-[2-(2-naphthalenyloxy)ethoxy]-alpha-[(2-propenyloxy)imino]-2-thiopheneacetic acid] | 
3 µM | O=C(O)C(=O)c1ccc(OCCOc2ccc([N+](=O)[O-])cc2)cc1 [Example 47, 4-[[2-(4-nitrophenoxy)ethyl]oxy]-alpha-oxobenzeneacetic acid] | 
6.5 µM | CN(C)/N=C(\C(=O)O)c1ccc(OCCOc2ccc3ccccc3c2)cc1 [Example 321, (Z)-alpha-(dimethylhydrazono)-4-[2-(2-naphthalenyloxy)ethoxy]benzeneaceticacid] | 
0.27 µM | C=CCO/N=C(\C(=O)O)c1ccc(OCCOc2ccc3ccccc3c2)s1 [Example 313, (E)-5-[2-(2-naphthalenyloxy)ethoxy]-alpha-[(2-propenyloxy)imino]-2-thiopheneacetic acid] | 
2.8 µM | O=C(O)C(=O)c1ccc(OCCOC2CCc3ccccc3C2)cc1 (racemic) [Example 114, rac.-alpha-oxo-4-[[2-(1,2,3,4-tetrahydro-2-naphthalenyloxy)ethyl]oxy]benzeneacetic acid] | 
8 µM | O=C(O)C(=O)c1ccc(OCC(O)COc2ccccc2)cc1 (racemic) [Example 80, rac.-4-[[(2-hydroxy-3-phenoxy)propyl]oxy]-alpha-oxobenzeneacetic acid] | 
10 µM | O=C(O)C(=O)c1ccc(OCC(=O)N2CCN(c3ccccc3)CC2)cc1 [Example 249, 4-[2-oxo-2-(4-phenyl-1-piperazinyl)ethoxy]-alpha-oxobenzeneacetic acid] | 
0.6 µM | O=C(O)C(=O)c1ccc(OCCOc2ccccc2F)cc1 [Example 39, 4-[[2-(2-fluorophenoxy)ethyl]oxy]-alpha-oxobenzeneacetic acid] | 
0.7 µM | O=C(O)C(=O)c1ccc(NCCOc2ccc3ccccc3c2)cc1 [Example 168, 4-[[2-(2-naphthalenyloxy)ethyl]amino]-alpha-oxobenzeneaceticacid] | 
5 µM | O=C(O)C(=O)c1ccc(OCCCCCOc2ccccc2)cc1 [Example 73, alpha-oxo-4-[[(5-phenoxy)pentyl]oxy]benzeneacetic acid] | 
6.7 µM | O=C(O)C(=O)c1c(Cl)cc(OCCOc2ccc3ccccc3c2)cc1Cl [Example 191, 2,6-dichloro-4-[2-(2-naphthalenyloxy)ethoxy]-alpha-oxobenzeneacetic acid] | 
